Results reported in patent US20250163104A1, “MACROCYCLIC IMMUNOMODULATORS” (priority 2021, published 2025).
Where a SMILES comes first, the peptide text is derived from it. Bridges are numbered along the chain shown (N, C = ends). [ ]: non-standard residue; d: D form. The star is where a group is joined. Bip = N[C@@H](Cc1ccc(-c2ccccc2)cc1)C(=O)O; Cha = N[C@@H](CC1CCCCC1)C(=O)O; Carboxymethyl = O=C(O)C*; Orn = NCCC[C@H](N)C(=O)O; Dab = NCC[C@H](N)C(=O)O; Dap = NC[C@H](N)C(=O)O; Bn = c1ccc(C*)cc1

Target: T1, human PD-1 / PD-L1-Ig binding on Jurkat cell line over-expressing human PD-1 (Jurkat-PD-1) (Homo sapiens, UniProt Q15116)
T1 construct: expressed in transfected cells; host or cells: Jurkat
T1 sequence (Q15116 25-288): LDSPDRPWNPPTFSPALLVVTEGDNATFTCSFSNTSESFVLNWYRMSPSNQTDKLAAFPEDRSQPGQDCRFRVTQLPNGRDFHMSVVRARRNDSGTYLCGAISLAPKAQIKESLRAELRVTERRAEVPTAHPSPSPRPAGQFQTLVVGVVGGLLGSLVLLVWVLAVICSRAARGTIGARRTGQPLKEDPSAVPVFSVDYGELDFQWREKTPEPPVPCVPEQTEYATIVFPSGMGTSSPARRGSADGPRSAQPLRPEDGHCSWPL
Assay: Jurkat-PD-1 Cell Binding High-Content Screening Assay (CBA)
Type: cell-based
Conditions: Jurkat HPD1_PDL1 IC50, Jurkat-PD-1 cells, PE-labeled PD-L1-Ig 20 nM final
Method in brief: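 Jurkat cells over-expressing human PD-1, in DMEM/10% FCS, pre-incubated with compound 2 h at 37° C. PE-labeled human PD-L1-Ig (20 nM final) added for 1 h; cells fixed in paraformaldehyde with Hoechst 33342 nuclear stain, washed, and bound fluorescence quantified by high-content imaging.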

Compared with `CC(C)C[C@H]1NC(=O)[C@H](CCCN)NC(=O)[C@H](C(C)C)NC(=O)[C@H](Cc2ccc(-c3ccccc3)cc2)NC(=O)[C@H](C(C)C)NC(=O)[C@H](Cc2c[nH]c3ccccc23)NC(=O)[C@H](CC(=O)O)NC(=O)[C@H](Cc2ccc(OCC(=O)O)cc2)NC(=O)[C@H](Cc2ccc(OCc3ccccc3)cc2)NC(=O)CSC[C@@H](C(=O)N[C@@H](C)C(N)=O)NC(=O)[C@H]([C@@H](C)O)NC(=O)[C@H](C(C)C)NC(=O)[C@H](CC2CCCCC2)NC(=O)[C@H](CCN)NC1=O` [Compound 1527], `CC(C)C[C@H]1NC(=O)[C@H](CCCN)NC(=O)[C@H](C(C)C)NC(=O)[C@H](Cc2ccc(-c3ccccc3)cc2)NC(=O)[C@H](Cc2ccc(OCc3ccccc3)cc2)NC(=O)[C@H](Cc2c[nH]c3ccccc23)NC(=O)[C@H](CC(=O)O)NC(=O)[C@H](Cc2ccc(OCC(=O)O)cc2)NC(=O)[C@H](CN)NC(=O)CSC[C@@H](C(=O)N[C@@H](C)C(N)=O)NC(=O)[C@H]([C@@H](C)O)NC(=O)[C@H](C(C)C)NC(=O)[C@H](CC2CCCCC2)NC(=O)[C@H](CCN)NC1=O` [Compound 1529] ({CH2CO}-[Dap]Y(Carboxymethyl)DWY(Bn)[Bip]V[Orn][dL][Dab][Cha]VTCA-NH2; thioether N-14) is 2.4-fold lower in IC50: 103 nM for the first, 43.5 nM for the second. The second is the more potent here.

`CC(C)C[C@H]1NC(=O)[C@H](CCCN)NC(=O)[C@H](C(C)C)NC(=O)[C@H](Cc2ccc(-c3ccccc3)cc2)NC(=O)[C@H](C(C)C)NC(=O)[C@H](Cc2c[nH]c3ccccc23)NC(=O)[C@H](CC(=O)O)NC(=O)[C@H](Cc2ccc(OCc3ccccc3)cc2)NC(=O)[C@H](CN)NC(=O)CSC[C@@H](C(=O)N[C@@H](C)C(N)=O)NC(=O)[C@H]([C@@H](C)O)NC(=O)[C@H](C(C)C)NC(=O)[C@H](CC2CCCCC2)NC(=O)[C@H](CCN)NC1=O` [Compound 1528] and `CC(C)C[C@H]1NC(=O)[C@H](CCCN)NC(=O)[C@H](Cc2ccc(OCc3ccccc3)cc2)NC(=O)[C@H](Cc2ccc(-c3ccccc3)cc2)NC(=O)[C@H](C(C)C)NC(=O)[C@H](Cc2c[nH]c3ccccc23)NC(=O)[C@H](CC(=O)O)NC(=O)[C@H](Cc2ccc(OCC(=O)O)cc2)NC(=O)[C@H](CN)NC(=O)CSC[C@@H](C(=O)N[C@@H](C)C(N)=O)NC(=O)[C@H]([C@@H](C)O)NC(=O)[C@H](C(C)C)NC(=O)[C@H](CC2CCCCC2)NC(=O)[C@H](CCN)NC1=O` [Compound 1530] are within 1.5-fold of each other in IC50: 100 nM for the first, 94.9 nM for the second.

Same assay, conditions: Jurkat-PD-1 cells, PE-labeled PD-L1-Ig 20 nM final; read-out: Jurkat HPD1_PDL1 IC50

First: CC(C)C[C@H]1NC(=O)[C@H](CCCN)NC(=O)[C@H](C(C)C)NC(=O)[C@H](Cc2ccc(-c3ccccc3)cc2)NC(=O)[C@H](C(C)C)NC(=O)[C@H](Cc2c[nH]c3ccccc23)NC(=O)[C@H](CC(=O)O)NC(=O)[C@H](Cc2ccc(OCC(=O)O)cc2)NC(=O)[C@H](CN)NC(=O)CSC[C@@H](C(=O)N[C@@H](C)C(N)=O)NC(=O)[C@H]([C@@H](C)O)NC(=O)[C@H](C(C)C)NC(=O)[C@H](CC2CCCCC2)NC(=O)[C@H]([C@@H](C)O)NC1=O [Compound 1524] ({CH2CO}-[Dap]Y(Carboxymethyl)DWV[Bip]V[Orn][dL]T[Cha]VTCA-NH2; thioether N-14)
Second: CC(C)C[C@H]1NC(=O)[C@H](CCCN)NC(=O)[C@H](C(C)C)NC(=O)[C@H](Cc2ccc(-c3ccccc3)cc2)NC(=O)[C@H](C(C)C)NC(=O)[C@H](Cc2c[nH]c3ccccc23)NC(=O)[C@H](CC(=O)O)NC(=O)[C@H](Cc2ccc(OCC(=O)O)cc2)NC(=O)[C@H](CN)NC(=O)CSC[C@@H](C(=O)N[C@@H](C)C(N)=O)NC(=O)[C@H]([C@@H](C)O)NC(=O)[C@H](C(C)C)NC(=O)[C@H](CC2CCCCC2)NC(=O)[C@H](Cc2cnc[nH]2)NC1=O [Compound 1525]
The IC50 of the first is 1.7-fold lower: 9.2 nM for the first, 15.4 nM for the second. The first is the more potent here.
